Experimental data taken from patent US8940343B2, “Personal care composition” (Conopco Inc., priority 2010, dated 2015).

Experiments:
[1] = known phenolic antioxidants compared with theaflavin
[2] = HPTLC photostability of Parsol 1789 spotted with potential quencher molecules (methanol stock solutions), UVR exposure, densitometry; assay type: physicochemical; conditions: Parsol 1789 remaining on HPTLC plate after UVR 5.5 mW/cm^2 for 120 minutes; ratios by weight
Description: The method was based on spotting the HPTLC plates (in duplicate) with the sunscreen molecules of interest along with potential quencher molecules or formulations. The plate is then exposed to UVR (intensity 5.5 mW/cm^2) for 120 minutes. Following this the chromatographic separation was carried out using appropriate solvent system. Densitometry analysis is done to determine the amount of sunscreen degraded.
Stock solutions were prepared in methanol following the ratios as mentioned in the following table. 14 μL of stock solutions were loaded (3 mm width; 16 mm separation) on a 10×10 cm F254 HPTLC plate, using CAMAG LINOMAT 5 applicator equipped with a 100 μL micro-syringe (Hamilton, Switzerland). Ascending chromatography was performed at a distance of 85 mm in a TLC chamber using n-hexane-ethyl acetate 9:1 (v/v) as the mobile phase (˜10 mL). The plates were dried at room temperature and subjected to ultraviolet absorption densitometry scan. The concentration dependent fluorescent bands due to presence of sunscreens were detected with a linear scan at 310 or 357 nm, using Camag TLC Scanner 3, in the presence of deuterium source. […] 4-t-buty-4′-methoxdibenzoylmethane concentrations present on each lane were determined from densitogram peak areas; prior and after the sun exposure using Win CATS Planar chromatography manager software.

Row | Compound | stabilizing property for sunscreens [1] | Mean Percent stability [2] [%]
1 | COC(=O)c1cc(O)c(O)c(O)c1 [methyl gallate] | did not provide the stabilizing property | –
2 | COc1ccc(C(=O)CC(=O)c2ccc(C(C)(C)C)cc2)cc1 [Example 1a, 4-t-butyl-4′-methoxydibenzoylmethane] | – | 61.9
